How the values were obtained:
[1] = system: Myotonic Dystrophy 1 affected patient fibroblasts (Coriel GM04602; 1600 CTG repeats); assay: DM1 foci reduction assay (EC50 assay; CAG10-Cy3 FISH, foci per nucleus); format: cell-based; settings: Homo sapiens, Fibroblast; DM1 patient fibroblasts, 48 h treatment, foci per nucleus; read-out: DM1 EC50, 48 h
Method in brief: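 Foci per nucleus counted by 20× imaging of 4 areas per well, after overnight FISH with 5 nM CAG10-Cy3 and DAPI staining of fixed, permeabilized cells. DM1 fibroblasts (GM04602, 1600 CTG) were dosed 48 h at 37 °C, 8 points, 3-fold dilutions, 3 μM top concentration.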

[2] = system: F35T cells; assay: Foci reduction in FECD (CAG10-Cy3 FISH, foci per nucleus); format: cell-based; settings: F35T cells, 48 h treatment, foci per nucleus; read-out: FECD EC50, 48 h
Method in brief: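 Foci per nucleus were counted by imaging after overnight CAG10-Cy3 FISH at 37 °C (30% formamide, 2×SSC) with DAPI counterstain, on PFA-fixed, ethanol-permeabilized F35T cells. The cells, seeded at 5000 per well in supplemented Opti-MEM, had received 8-point compound dilutions for 48 h at 37 °C.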

Structure (SMILES)	EC50 [1] [nM]	EC50 [2] [nM]
COCCOCCOCCOCCN(CCCCCn1cc(NC(=O)CCNC(=O)c2nc(NC(=O)CCCNC(=O)c3cc(NC(=O)c4nc(NC(=O)CCNC(=O)c5cc(NC(=O)c6nccn6C)cn5C)cn4C)cn3C)cn2C)cc1C(=O)Nc1cn(C)c(C(=O)NCCC(=O)N2CCC(N3CCNCC3)CC2)n1)CCOCCOCCOCCOC [Compound B-158]	> 1000	> 1000
CCCNC(=O)CCNC(=O)c1nc(NC(=O)c2cc(NC(=O)CCNC(=O)c3nc(NC(=O)CCCNC(=O)c4cc(NC(=O)c5nc(NC(=O)CCNC(=O)c6cc(NC(=O)c7nccn7C)cn6C)cn5C)cn4CCCCCN(CCOCCOCCOCCOC)CCOCCOCCOCCOC)cn3C)cn2C)cn1C [Compound B-161]	500 to 1000	100 to 500
CCCNC(=O)CCNC(=O)c1nc(NC(=O)c2cc(NC(=O)CCNC(=O)c3nc(NC(=O)CCCNC(=O)c4cc(NC(=O)c5nc(NC(=O)CCNC(=O)c6cc(NC(=O)c7nccn7C)cn6C)cn5C)cn4CCCCC(=O)N(CCOCCOCCOCCOC)CCOCCOCCOCCOC)cn3C)cn2C)cn1C [Compound B-163]	100 to 500	100 to 500
COCCOCCOCCOCCN(CCOCCOCCOCCOC)C(=O)CCCCn1cc(NC(=O)c2nc(NC(=O)CCNC(=O)c3cc(NC(=O)c4nccn4C)cn3C)cn2C)cc1C(=O)NCCCC(=O)Nc1cn(C)c(C(=O)NCCC(=O)Nc2cc(C(=O)Nc3cn(C)c(C(=O)NCCC(=O)N4CCC(N5CCNCC5)CC4)n3)n(C)c2)n1 [Compound B-164]	500 to 1000	100 to 500
CC(C)CCC(=O)N1CCC(C#CC#CC2CCN(CCOCCOCCOCCNC(=O)CCNC(=O)c3nc(NC(=O)c4cc(NC(=O)CCNC(=O)c5nc(NC(=O)CCCNC(=O)c6cc(NC(=O)c7nc(NC(=O)CCNC(=O)c8cc(NC(=O)c9nccn9C)cn8C)cn7C)cn6C)cn5C)cn4C)cn3C)CC2)CC1 [Compound B-169]	100 to 500	100 to 500
CC(C)CCCN1CCC(C#CC#CC2CCN(CCOCCOCCOCCNC(=O)CCNC(=O)c3nc(NC(=O)c4cc(NC(=O)CCNC(=O)c5nc(NC(=O)CCCNC(=O)c6cc(NC(=O)c7nc(NC(=O)CCNC(=O)c8cc(NC(=O)c9nccn9C)cn8C)cn7C)cn6C)cn5C)cn4C)cn3C)CC2)CC1 [Compound B-170]	100 to 500	100 to 500
CCCCCC(=O)N1CCC(C#CC#CC2CCN(CCOCCOCCOCCNC(=O)CCNC(=O)c3nc(NC(=O)c4cc(NC(=O)CCNC(=O)c5nc(NC(=O)CCCNC(=O)c6cc(NC(=O)c7nc(NC(=O)CCNC(=O)c8cc(NC(=O)c9nccn9C)cn8C)cn7C)cn6C)cn5C)cn4C)cn3C)CC2)CC1 [Compound B-171]	< 100	100 to 500
CCCCCCN1CCC(C#CC#CC2CCN(CCOCCOCCOCCNC(=O)CCNC(=O)c3nc(NC(=O)c4cc(NC(=O)CCNC(=O)c5nc(NC(=O)CCCNC(=O)c6cc(NC(=O)c7nc(NC(=O)CCNC(=O)c8cc(NC(=O)c9nccn9C)cn8C)cn7C)cn6C)cn5C)cn4C)cn3C)CC2)CC1 [Compound B-172]	< 100	100 to 500
CSCCCC(=O)N1CCC(C#CC#CC2CCN(CCOCCOCCOCCNC(=O)CCNC(=O)c3nc(NC(=O)c4cc(NC(=O)CCNC(=O)c5nc(NC(=O)CCCNC(=O)c6cc(NC(=O)c7nc(NC(=O)CCNC(=O)c8cc(NC(=O)c9nccn9C)cn8C)cn7C)cn6C)cn5C)cn4C)cn3C)CC2)CC1 [Compound B-173]	100 to 500	100 to 500
CSCCCCN1CCC(C#CC#CC2CCN(CCOCCOCCOCCNC(=O)CCNC(=O)c3nc(NC(=O)c4cc(NC(=O)CCNC(=O)c5nc(NC(=O)CCCNC(=O)c6cc(NC(=O)c7nc(NC(=O)CCNC(=O)c8cc(NC(=O)c9nccn9C)cn8C)cn7C)cn6C)cn5C)cn4C)cn3C)CC2)CC1 [Compound B-174]	100 to 500	100 to 500
Cn1cc(NC(=O)c2nc(NC(=O)CCNC(=O)c3cc(NC(=O)c4nccn4C)cn3C)cn2C)cc1C(=O)NCCCC(=O)Nc1cn(C)c(C(=O)NCCC(=O)Nc2cc(C(=O)Nc3cn(C)c(C(=O)NCCC(=O)NCCOCCOCCOCCN4CCC(C#CC#CC5CCN(C(=O)c6ccc(C(C)(C)C)cc6)CC5)CC4)n3)n(C)c2)n1 [Compound B-175]	100 to 500	100 to 500
Cn1cc(NC(=O)c2nc(NC(=O)CCNC(=O)c3cc(NC(=O)c4nccn4C)cn3C)cn2C)cc1C(=O)NCCCC(=O)Nc1cn(C)c(C(=O)NCCC(=O)Nc2cc(C(=O)Nc3cn(C)c(C(=O)NCCC(=O)NCCCCCN4CCC(C#CC#CC5CCN(C(=O)c6ccc(C(C)(C)C)cc6)CC5)CC4)n3)n(C)c2)n1 [Compound B-177]	500 to 1000	100 to 500
CC(C)CCNC(=O)CCNC(=O)c1nc(NC(=O)c2cc(NC(=O)CCNC(=O)c3nc(NC(=O)CCCNC(=O)c4cc(NC(=O)c5nc(NC(=O)CCNC(=O)c6cc(NC(=O)c7nccn7C)cn6C)cn5C)cn4C)cn3C)cn2C)cn1C [Compound B-179]	100 to 500	< 100
CC(C)CCCN1CCC(C#CC#CC2CCN(CCCCCNC(=O)CCNC(=O)c3nc(NC(=O)c4cc(NC(=O)CCNC(=O)c5nc(NC(=O)CCCNC(=O)c6cc(NC(=O)c7nc(NC(=O)CCNC(=O)c8cc(NC(=O)c9nccn9C)cn8C)cn7C)cn6C)cn5C)cn4C)cn3C)CC2)CC1 [Compound B-185]	> 1000	100 to 500
Cn1cc(NC(=O)c2nc(NC(=O)CCNC(=O)c3cc(NC(=O)c4nccn4C)cn3C)cn2C)cc1C(=O)NCCCC(=O)Nc1cn(C)c(C(=O)NCCC(=O)Nc2cc(C(=O)Nc3cn(C)c(C(=O)NCCC(=O)N4CCC(C5CN(C(=O)OC(C)(C)C)C5)CC4)n3)n(C)c2)n1 [Compound B-193]	< 100	< 100
Cn1cc(NC(=O)c2nc(NC(=O)CCNC(=O)c3cc(NC(=O)c4nccn4C)cn3C)cn2C)cc1C(=O)NCCCC(=O)Nc1cn(C)c(C(=O)NCCC(=O)Nc2cc(C(=O)Nc3cn(C)c(C(=O)NCCc4cnc(CNC(=O)OCc5ccccc5)[nH]4)n3)n(C)c2)n1 [Compound B-202]	100 to 500	< 100
Cn1cc(NC(=O)c2nc(NC(=O)CCNC(=O)c3cc(NC(=O)c4nccn4C)cn3C)cn2C)cc1C(=O)NCCCC(=O)Nc1cn(C)c(C(=O)NCCC(=O)Nc2cc(C(=O)Nc3cn(C)c(C(=O)NCCCCN=[N+]=[N-])n3)n(C)c2)n1 [Compound B-203]	< 100	< 100
Cn1cc(NC(=O)c2nc(NC(=O)CCNC(=O)c3cc(NC(=O)c4nccn4C)cn3C)cn2C)cc1C(=O)NCCCC(=O)Nc1cn(C)c(C(=O)NCCC(=O)Nc2cc(C(=O)Nc3cn(C)c(C(=O)NCCCN=C(N)N)n3)n(C)c2)n1 [Compound B-205]	< 100	< 100
CN(C)C(=NCCCNC(=O)c1nc(NC(=O)c2cc(NC(=O)CCNC(=O)c3nc(NC(=O)CCCNC(=O)c4cc(NC(=O)c5nc(NC(=O)CCNC(=O)c6cc(NC(=O)c7nccn7C)cn6C)cn5C)cn4C)cn3C)cn2C)cn1C)N(C)C [Compound B-206]	100 to 500	100 to 500
Cn1cc(NC(=O)c2nc(NC(=O)CCNC(=O)c3cc(NC(=O)c4nccn4C)cn3C)cn2C)cc1C(=O)NCCCC(=O)Nc1cn(C)c(C(=O)NCCC(=O)Nc2cc(C(=O)Nc3cn(C)c(C(=O)NCCCN4CCNCC4)n3)n(C)c2)n1 [Compound B-207]	100 to 500	> 1000
Cn1cc(NC(=O)c2nc(NC(=O)CCNC(=O)c3cc(NC(=O)c4nccn4C)cn3C)cn2C)cc1C(=O)NCCCC(=O)Nc1cn(C)c(C(=O)NCCC(=O)Nc2cc(C(=O)Nc3cn(C)c(C(=O)NCCCN4CCCCC4)n3)n(C)c2)n1 [Compound B-208]	100 to 500	100 to 500
CCCNC(=O)c1cc(NC(=O)CCNC(=O)c2nc(NC(=O)CCCNC(=O)c3cc(NC(=O)c4nc(NC(=O)CCNC(=O)c5cc(NC(=O)c6nccn6C)cn5C)cn4C)cn3C)cn2C)cn1C [Compound B-209]	> 1000	> 1000
Cn1cc(NC(=O)c2nc(NC(=O)CCNC(=O)c3cc(NC(=O)c4nccn4C)cn3C)cn2C)cc1C(=O)NCCCC(=O)Nc1cn(C)c(C(=O)NCCC(=O)Nc2cc(C(=O)Nc3cn(C)c(C(=O)NCCC(=O)N4CCC(C#CC#CC5CCN(C(=O)c6cccc(C(=O)O)c6)CC5)CC4)n3)n(C)c2)n1 [Compound B-224]	> 1000	500 to 1000
COCCOCCOCCOCCN(CCCCCn1cc(NC(=O)c2nc(NC(=O)CCNC(=O)c3cc(NC(=O)c4nccn4C)cn3C)cn2C)cc1C(=O)NCCCC(=O)Nc1cn(C)c(C(=O)NCCC(=O)Nc2cc(C(=O)Nc3cn(C)c(C(=O)NCCC(=O)NCCOCCOCCOCCN4CCC(C#CC#CC5CCN(C(=O)OC(C)(C)C)CC5)CC4)n3)n(C)c2)n1)CCOCCOCCOCCOC [Compound B-226]	100 to 500	100 to 500
COCCOCCOCCOCCN(CCCCCn1cc(NC(=O)c2nc(NC(=O)CCNC(=O)c3cc(NC(=O)c4nccn4C)cn3C)cn2C)cc1C(=O)NCCCC(=O)Nc1cn(C)c(C(=O)NCCC(=O)Nc2cc(C(=O)Nc3cn(C)c(C(=O)NCCC(=O)NCCOCCOCCOCCN4CCC(C#CC#CC5CCNCC5)CC4)n3)n(C)c2)n1)CCOCCOCCOCCOC [Compound B-227]	> 1000	> 1000
COCCOCCOCCOCCN(CCOCCOCCOCCOC)C(=O)CCCCn1cc(NC(=O)c2nc(NC(=O)CCNC(=O)c3cc(NC(=O)c4nccn4C)cn3C)cn2C)cc1C(=O)NCCCC(=O)Nc1cn(C)c(C(=O)NCCC(=O)Nc2cc(C(=O)Nc3cn(C)c(C(=O)NCCC(=O)NCCOCCOCCOCCN4CCC(C#CC#CC5CCN(C(=O)OC(C)(C)C)CC5)CC4)n3)n(C)c2)n1 [Compound B-228]	100 to 500	100 to 500
COCCOCCOCCOCCN(CCOCCOCCOCCOC)C(=O)CCCCn1cc(NC(=O)c2nc(NC(=O)CCNC(=O)c3cc(NC(=O)c4nccn4C)cn3C)cn2C)cc1C(=O)NCCCC(=O)Nc1cn(C)c(C(=O)NCCC(=O)Nc2cc(C(=O)Nc3cn(C)c(C(=O)NCCC(=O)NCCOCCOCCOCCN4CCC(C#CC#CC5CCNCC5)CC4)n3)n(C)c2)n1 [Compound B-229]	> 1000	> 1000

From patent US20250368628A1, “METHODS AND COMPOUNDS FOR MODULATING INHERITED GENETIC DISEASES” (Design Therapeutics, Inc., priority 2022, published 2025)
